Reference: the supplement of paper PMC10627819

Key:
Assay in all cases: Bliss interaction score (quartile over a dose matrix) (fitness difference); higher = more antagonism (negative = synergy)
B. subtilis 168 = test system: B. subtilis 168
Method in brief: (§1)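 The Bliss score takes observed fitness and subtracts the expected fitness, calculated as a product of single-drug fitness values. Those single-drug values were inferred from the combination data. Fitness is OD595 at entry into stationary phase divided by the plate's robust no-drug mean, capped at 1, and the score is summarised by quartiles across technical, biological and donor/recipient replicates.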

S. aureus DSM 20231 = test system: S. aureus DSM 20231
Method in brief: as §1

S. aureus Newman = test system: S. aureus Newman
Method in brief: as §1

S. pneumoniae D39V = test system: S. pneumoniae D39V
Method in brief: as §1
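Also: first quartile when negative (synergy) and third quartile when positive (antagonism).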

Structure (SMILES) | Bliss interaction score (B. subtilis 168) | Bliss interaction score (S. aureus DSM 20231) | Bliss interaction score (S. aureus Newman) | Bliss interaction score (S. pneumoniae D39V)
CO/N=C(\C(=O)N[C@@H]1C(=O)N2C(C(=O)[O-])=C(C[N+]3(C)CCCC3)CS[C@H]12)c1csc(N)n1 [Cefepime] + C[C@H]1c2cccc(O)c2C(=O)C2=C(O)[C@]3(O)C(=O)C(C(N)=O)=C(O)[C@@H](N(C)C)[C@@H]3[C@@H](O)[C@@H]21 [Doxycycline] | 0.0669 | 0.119 | 0.0446 | 0.203
CCCCCCCCCC(=O)N[C@@H](Cc1c[nH]c2ccccc12)C(=O)N[C@H](CC(N)=O)C(=O)N[C@@H](CC(=O)O)C(=O)N[C@@H]1C(=O)NCC(=O)N[C@@H](CCCN)C(=O)N[C@@H](CC(=O)O)C(=O)N[C@H](C)C(=O)N[C@@H](CC(=O)O)C(=O)NCC(=O)N[C@H](CO)C(=O)N[C@@H]([C@H](C)CC(=O)O)C(=O)N[C@@H](CC(=O)c2ccccc2N)C(=O)O[C@@H]1C [Daptomycin] + CN[C@H](CC(C)C)C(=O)N[C@H]1C(=O)N[C@@H](CC(N)=O)C(=O)N[C@H]2C(=O)N[C@H]3C(=O)N[C@H](C(=O)N[C@H](C(=O)O)c4cc(O)cc(O)c4-c4cc3ccc4O)[C@H](O[C@H]3C[C@](C)(N)[C@@H](O)[C@H](C)O3)c3ccc(c(Cl)c3)Oc3cc2cc(c3O[C@@H]2O[C@H](CO)[C@@H](O)[C@H](O)[C@H]2O[C@H]2C[C@](C)(NCc3ccc(-c4ccc(Cl)cc4)cc3)[C@@H](O)[C@H](C)O2)Oc2ccc(cc2Cl)[C@H]1O [Oritavancin] | -0.0305 | 0.0891 | 0.0913 | 0.0853
CC1(C)S[C@@H]2[C@H](NC(=O)[C@H](N)c3ccc(O)cc3)C(=O)N2[C@H]1C(=O)O [Amoxicillin] + CCP(CC)CC.CC(=O)OC[C@@H]1[C@H]([C@@H]([C@H]([C@@H](O1)[S-])OC(=O)C)OC(=O)C)OC(=O)C.[Au+] [Auranofin] | -0.0508 | 0.0373 | -0.0817 | 0.178
CCN(CC)CCOC(=O)c1ccc(N)cc1 [Procaine] + Oc1cc(Cl)ccc1Oc1ccc(Cl)cc1Cl [Triclosan] | 0.0507 | 0.0864 | -0.0125 | -0.0644
CO/N=C(\C(=O)N[C@@H]1C(=O)N2C(C(=O)[O-])=C(C[N+]3(C)CCCC3)CS[C@H]12)c1csc(N)n1 [Cefepime] + O=C(O)[C@H]1/C(=C/CO)O[C@@H]2CC(=O)N21 [Clavulanic] | -0.0808 | 0.0843 | 0.0605 | -0.0597
CC1(C)S[C@@H]2[C@H](NC(=O)[C@H](N)c3ccc(O)cc3)C(=O)N2[C@H]1C(=O)O [Amoxicillin] + CO[C@@H]1[C@@H](OC(N)=O)[C@@H](O)[C@H](Oc2ccc3c(O)c(NC(=O)c4ccc(O)c(CC=C(C)C)c4)c(=O)oc3c2C)OC1(C)C [Novobiocin] | 0.0931 | 0.0568 | -0.0655 | 0.125
C[C@H]1COc2c(N3CCN(C)CC3)c(F)cc3c(=O)c(C(=O)O)cn1c23 [Levofloxacin] + Oc1cc(Cl)ccc1Oc1ccc(Cl)cc1Cl [Triclosan] | 0.0373 | -0.0551 | -0.0181 | 0.054
CO/N=C(\C(=O)N[C@@H]1C(=O)N2C(C(=O)[O-])=C(C[N+]3(C)CCCC3)CS[C@H]12)c1csc(N)n1 [Cefepime] + CO[C@@]12[C@H](COC(N)=O)C3=C(C(=O)C(C)=C(N)C3=O)N1C[C@@H]1N[C@@H]12 [MitomycinC] | -0.153 | -0.0534 | 0.0543 | 0.125
CO/N=C(\C(=O)N[C@@H]1C(=O)N2C(C(=O)[O-])=C(C[N+]3(C)CCCC3)CS[C@H]12)c1csc(N)n1 [Cefepime] + CCC[C@@H]1C[C@@H](C(=O)N[C@@H]([C@H]2O[C@H](SC)[C@H](O)[C@@H](O)[C@H]2O)[C@H](C)Cl)N(C)C1 [Clindamycin] | 0.0651 | 0.0679 | 0.0778 | 0.162
CC1(C)S[C@@H]2[C@H](NC(=O)[C@H](N)c3ccc(O)cc3)C(=O)N2[C@H]1C(=O)O [Amoxicillin] + CC(=O)O[C@H]1C[C@@]2(C)[C@@H](C[C@@H](O)[C@H]3[C@@]4(C)CC[C@@H](O)[C@@H](C)[C@@H]4CC[C@@]32C)/C1=C(\CCC=C(C)C)C(=O)O [Fusidic acid] | 0.0608 | 0.0361 | -0.0375 | 0.143
CN(C)C(=O)C(CCN1CCC(O)(c2ccc(Cl)cc2)CC1)(c1ccccc1)c1ccccc1 [Loperamide] + CC1(C)S[C@@H]2[C@H](NC(=O)Cc3ccccc3)C(=O)N2[C@H]1C(=O)O [PenicillinG] | 0.0464 | -0.14 | -0.068 | -0.249
